The text below walks through data of US20220267349A1, “HETEROCYCLIC COMPOUNDS” (Hoffmann-La Roche Inc., priority 2019, published 2022).

For the assay, the target named is T1, MAGL (Homo sapiens, UniProt Q99685).
T1 sequence (Q99685 1-303): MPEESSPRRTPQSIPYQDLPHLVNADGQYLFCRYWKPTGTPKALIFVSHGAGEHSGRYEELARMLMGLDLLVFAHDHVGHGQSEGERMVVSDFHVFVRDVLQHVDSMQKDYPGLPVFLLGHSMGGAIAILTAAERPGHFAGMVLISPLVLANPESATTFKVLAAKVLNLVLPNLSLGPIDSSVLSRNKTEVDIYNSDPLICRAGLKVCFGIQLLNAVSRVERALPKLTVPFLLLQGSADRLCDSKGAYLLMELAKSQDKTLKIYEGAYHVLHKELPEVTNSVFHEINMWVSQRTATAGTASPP
Kind of assay: 2-AG assay (MAGL inhibitory activity, hydrolysis of 2-arachidonoylglycerol followed by mass spectrometry). It counts as biochemical. To be noted: 50 pM MAGL, 8 μM 2-arachidonoylglycerol, 15 min preincubation, 30 min incubation at RT. The procedure: Compounds were profiled for MAGL inhibitory activity by determining the enzymatic activity by following the hydrolysis of the natural substrate 2-arachidonoylglycerol resulting in arachidonic acid, which can be followed by mass spectrometry. This assay is hereinafter abbreviated “2-AG assay”.
The 2-AG assay was carried out in 384 well assay plates (PP, Greiner Cat #784201) in a total volume of 20 μL. Compound dilutions were made in 100% DMSO (VWR Chemicals 23500.297) in a polypropylene plate in 3-fold dilution steps to give a final concentration range in the assay from 12.5 μM to 0.8 pM. 0.25 μL compound dilutions (100% DMSO) were added to 9 μL MAGL in assay buffer (50 mM TRIS (GIBCO, 15567-027), 1 mM EDTA (Fluka, 03690-100 ml), 0.01% (v/v) Tween. After shaking, the plate was incubated for 15 min at RT. To start the reaction, 10 μL 2-arachidonoylglycerol in assay buffer was added. The final concentrations in the assay was 50 pM MAGL and 8 μM 2-arachidonoylglyerol. After shaking and 30 min incubation at RT, the reaction was quenched by the addition of 40 μL of acetonitrile containing 4 μM of d8-arachidonic acid. The amount of arachidonic acid was traced by an online SPE system (Agilent Rapidfire) coupled to a triple quadrupole mass spectrometer (Agilent 6460). A C18 SPE cartridge (G9205A) was used in an acetonitrile/water liquid setup. The mass spectrometer was operated in negative electrospray mode following the mass transitions 303.1→259.1 for arachidonic acid and 311.1→267.0 for d8-arachidonic acid. The activity of the compounds was calculated based on the ratio of intensities [arachidonic acid/d8-arachidonic acid].

A word on the IC50: it is the concentration needed to halve the response being measured. High values mean weaker potency in that assay, low ones greater potency in that assay. As for `O=C(N1CCC(C(c2ccccc2)c2ccccc2)CC1)N1CCc2ccc(=O)[nH]c2C1` [Example 8, 7-(4-Benzhydrylpiperidine-1-carbonyl)-1,5,6,8-tetrahydro-1,7-naphthyridin-2-one], 3 nM corresponded to half-maximal inhibition (IC50). For `O=C1CC(O)[C@H]2CCN(C(=O)N3CC(OCc4ccc(C(F)(F)F)cc4F)C3)C[C@H]2N1` (mixture of isomers) [Example 18, rac-(4aS,8aS)-7-[3-[[2-fluoro-4-(trifluoromethyl)phenyl]methoxy]azetidine-1-carbonyl]-4-hydroxy-1,3,4,4a,5,6,8,8a-octahydro-1,7-naphthyridin-2-one] the value was 1100 nM; for `O=C1CN[C@H]2CCN(C(=O)N3CC(OCc4ccc(C(F)(F)F)cc4F)C3)C[C@H]2N1` (racemic) [Example 12, rac-(4aR,8aS)-6-[3-[[2-Fluoro-4-(trifluoromethyl)phenyl]methoxy]azetidine-1-carbonyl]-1,2,4,4a,5,7,8,8a-octahydropyrido[3,4-b]pyrazin-3-one], 72.8 nM. Compound `O=C(N1CCc2ccc(=O)[nH]c2C1)N1CC(OCc2ccc(C(F)(F)F)cc2F)C1` [Example 9, 7-[3-[[2-Fluoro-4-(trifluoromethyl)phenyl]methoxy]azetidine-1-carbonyl]-1,5,6,8-tetrahydro-1,7-naphthyridin-2-one] had an IC50 of 14.3 nM. This IC50 lies about 5.1-fold lower than the previous one. Regarding `O=C1CO[C@@H]2[C@@H](CN(C(=O)N3CC(c4ccc(CC(F)(F)F)cc4)C3)CC2(F)F)N1` (single isomer, unassigned) [Example 6], the IC50 was determined as 649 nM. Then `O=C1CC[C@H]2CCN(C(=O)N3CCC(C(c4ccccc4)c4ccccc4)CC3)C[C@H]2N1` (racemic) [Example 10, rac-(4aS,8aS)-7-(4-Benzhydrylpiperidine-1-carbonyl)octahydro-1,7-naphthyridin-2(1H)-one], with 0.06 nM; and `O=C1CN[C@H]2CCN(C(=O)N3CC(OCc4ccc(C(F)(F)F)cc4F)C3)C[C@H]2N1` (single isomer, unassigned) [Example 13, (4aR,8aS)- or (4aR,8aS)-6-[3-[[2-Fluoro-4-(trifluoromethyl)phenyl]methoxy]azetidine-1-carbonyl]-1,2,4,4a,5,7,8,8a-octahydropyrido[3,4-b]pyrazin-3-one], with 159 nM; and `O=C1CO[C@H]2[C@H](CN(C(=O)N3CC(OCc4ccc(C(F)(F)F)cc4F)C3)CC2(F)F)N1` (single isomer, unassigned) [Example 3], with 11.1 nM. For `O=C1CO[C@@H]2[C@@H](CN(C(=O)N3CC(OCc4ccc(C(F)(F)F)cc4F)C3)CC2(F)F)N1` (single isomer, unassigned) [Example 4] the value was 1370 nM; for `O=C1CO[C@H]2[C@H](CN(C(=O)N3CC(c4ccc(CC(F)(F)F)cc4)C3)CC2(F)F)N1` (single isomer, unassigned) [Example 5], 2.6 nM; for `C[C@H]1CN(C(=O)N2CC(OCc3ccc(C(F)(F)F)cc3F)C2)C[C@H]2NC(=O)CO[C@@H]12` (relative stereo) [Example 1, rel-(4aR,8S,8aS)-6-[3-[[2-Fluoro-4-(trifluoromethyl)phenyl]methoxy]azetidine-1-carbonyl]-8-methyl-4,4a,5,7,8,8a-hexahydropyrido[4,3-b][1,4]oxazin-3-one], 4.4 nM. In turn, `O=C1CN[C@@H]2CCN(C(=O)N3CC(OCc4ccc(C(F)(F)F)cc4F)C3)C[C@@H]2N1` (single isomer, unassigned) [Example 14, (4aS,8aR)- or (4aS,8aR)-6-[3-[[2-Fluoro-4-(trifluoromethyl)phenyl]methoxy]azetidine-1-carbonyl]-1,2,4,4a,5,7,8,8a-octahydropyrido[3,4-b]pyrazin-3-one] registered an IC50 of 1430 nM.

In the case of `O=C1CC[C@H]2CCN(C(=O)N3CC(OCc4ccc(C(F)(F)F)cc4F)C3)C[C@H]2N1` (racemic) [Example 11, rac-(4aS,8aS)-7-[3-[[2-Fluoro-4-(trifluoromethyl)phenyl]methoxy]azetidine-1-carbonyl]-1,3,4,4a,5,6,8,8a-octahydro-1,7-naphthyridin-2-one], the IC50 came to 3.1 nM. The compound `CC1CN(C(=O)N2CC(OCc3ccc(C(F)(F)F)cc3F)C2)CC2NC(=O)COC12` [Example 2, rel-(4aS,8R,8aR)-6-[3-[[2-Fluoro-4-(trifluoromethyl)phenyl]methoxy]azetidine-1-carbonyl]-8-methyl-4,4a,5,7,8,8a-hexahydropyrido[4,3-b][1,4]oxazin-3-one] gave an IC50 of 118 nM. For `O=C1CO[C@H]2CCN(C(=O)N3CC(OCc4ccc(C(F)(F)F)cc4F)C3)C[C@@]2(O)N1` [Example 16, (4aS,8aS)-6-[3-[[2-fluoro-4-(trifluoromethyl)phenyl]methoxy]azetidine-1-carbonyl]-4a-hydroxy-5,7,8,8a-tetrahydro-4H-pyrido[4,3-b][1,4]oxazin-3-one] the value was 791 nM; for `O=C1COC2=C(CN(C(=O)N3CCC(Cc4ccc(C(F)(F)F)cc4)CC3)CC2)N1` [Example 7, 6-[4-[[4-(Trifluoromethyl)phenyl]methyl]piperidine-1-carbonyl]-4,5,7,8-tetrahydropyrido[4,3-b][1,4]oxazin-3-one], 51.8 nM.

The compound `O=C1CSC2=C(CN(C(=O)N3CC(OCc4ccc(C(F)(F)F)cc4F)C3)CC2)N1` [Example 17, 6-[3-[[2-fluoro-4-(trifluoromethyl)phenyl]methoxy]azetidine-1-carbonyl]-4,5,7,8-tetrahydropyrido[4,3-b][1,4]thiazin-3-one] registered an IC50 of 48.3 nM.
